Experimental data reported in PMC7000199, “Indirubin derivatives are potent and selective anti-Trypanosoma cruzi agents” (Virulence, 2018).
Like-named read-outs stand apart in the source and are kept apart here. Marks after values point to notes of the source that are not given here.

Experiments:
[1] = In vivo toxicity: mortality, behaviour, serum and urine renal and hepatic markers; details: mice, 10 or 20 mg/Kg for 5 consecutive days, up to 3 months post treatment
Description: (§3) Thus, the highest dose was selected (20 mg/kg) and administrated, as described in material and methods section.
(§4) The analysis was performed in 6 mice per group.

[2] = tested on: T. cruzi intracellular amastigotes; test: In vitro infection assay (infected peritoneal macrophages); format: cell-based, Trypanosoma cruzi; details: amastigotes in infected macrophages treated for 6 h, mean ± SD
Description: Peritoneal exudate macrophages were obtained by washing, with cold PBS, the peritoneal cavity of BALB/c mice 4–5 days after injection of 3% thioglycolate (Sigma-Aldrich) in saline (1.5 mL per mice). Then, cells were plated at a cell density of 2 × 10^5 cells/well in 24-well plates with sterile coverslips on the bottom in RPMI supplemented with 10% FBS and incubated for 24 h at 37° C and 5% CO2. Cells were then infected with trypomastigotes at a ratio of 10 parasites per macrophage for 2 h. Free trypomastigotes were removed by successive washes using saline solution. Cultures were incubated in complete medium alone or with the compounds under investigation in different concentrations for 6 h. The medium was replaced with fresh medium and the plate was incubated for 3 days. Cells were fixed in absolute alcohol and the percentage of infected macrophages and the mean number of amastigotes/100 macrophages was determined by manual counting after hematoxylin and eosin staining in an optical microscope (Olympus). The percentage of infected macrophages and the relative number of amastigotes per macrophage was determined by counting 100 cells per slide.
(§1) The selectivity index (SI) was defined as the ratio of CC50 by EC50 (trypomastigotes). The one-way ANOVA followed by Bonferroni’s multiple comparison test was used to determine the statistical significance of the group comparisons in the in vitro infection and in vivo studies. Results were considered statistically significant when P < 0.05. All analyzes were performed using Graph Pad Prism version 5.01

[3] = mouse, in vivo, 20 mg/kg
Description: as §3, §4

[4] = tested on: Y Trypanosoma cruzi strain; test: Infection in mice (acute Chagas disease model); format: in vivo, BALB/c mice; details: for Mortality: dead/total, monitored for 30 days after treatment; for % Blood parasitemia reduction in mice at 12 dpi: daily for 5 days from day 5 of infection, versus vehicle group
Description: Female BALB/c mice (18–22 g) were infected with bloodstream trypomastigotes by intraperitoneal inoculation of 10^4 parasites in 100 µL of saline solution and then mice were randomly divided in groups (six animals per group). Before starting the treatment on the fifth day post infection, the infection was confirmed in all animals where on average 0.4 × 10^6 parasites per ml of blood were found. Thus, after day 5 of infection, treatment with 20 mg/kg weight of indirubins 10, 11, 17 and 32 were given orally for five consecutive days. For the control group, benznidazole was given orally at dose of 100 mg/kg weight. Saline containing 20% DMSO was used as a vehicle and administrated on untreated and infected group. Infection was monitored daily by counting the number of motile parasites in 5 µL of fresh blood sample drawn from the lateral tail veins, as recommended by standard protocol. Survival of mice was monitored for 30 days after treatment.

T. cruzi trypomastigotes = test: Ultrastructural studies (TEM and SEM) of treated trypomastigotes; format: cell-based, Trypanosoma cruzi; details: 24 h; for morphological alterations by scanning electron microscopy: EC50 and 2 x EC50 concentration; for ultrastructural alterations by transmission electron microscopy: EC50 concentration
Description: Parasites were then fixed with 2% formaldehyde and 2.5% glutaraldehyde in sodium cacodylate buffer (0.1 M, pH 7.2) for 1 h at room temperature. After fixation, parasites were washed 3 times with sodium cacodylate buffer (0.1 M, pH 7.2), and post-fixed with a 1.0 % solution of osmium tetroxide containing 0.8% potassium ferrocyanide (Sigma-Aldrich; Catalog number: P3289) for 1 h. Cells were subsequently dehydrated in increasing concentrations of acetone (30, 50, 70, 90 and 100%) for 10 min at each step and embedded in polybed resin (PolyScience; Catalog number: 00552–500). Ultrathin sections on copper grids were contrasted with uranyl acetate and lead citrate and observed under a ZEISS 109 transmission electron microscope. For scanning electron microscopy, trypomastigotes treated and fixed in the same conditions were washed in 0.1 M cacodylate buffer, and allowed to adhere in coverslips pre-coated with poly-L-lysine (Sigma-Aldrich; Catalog number: P4707). Cells were then post-fixed with a solution of osmium tetroxide containing 0.8% of potassium ferrocyanide for 30 min and dehydrated in crescent concentrations of ethanol (30, 50, 70, 90 and 100%). The samples were dried until the critical point, metallized with gold and analyzed in a JEOL JSM-6390LV scanning electron microscope. Two independent experiments were performed.

[5] = tested on: T. cruzi trypomastigotes (Y strain); test: Cytotoxicity for trypomastigotes (viable parasite count, Neubauer chamber); format: cell-based, Trypanosoma cruzi; details: for activity at the screening threshold (in words): threshold 10 μΜ
From the text: The trypanocidal activity of the 69 indirubins was initially evaluated against trypomastigotes (Y strain T. cruzi) through the determination of EC50 values. First, the collection of 69 indirubins (Table S1) was screened against the trypomastigote form of T. cruzi parasites at 10 μΜ and 1 μΜ.
The T. cruzi Y strain (DTU II) was used in this study. […] For in vivo analysis, bloodstream trypomastigotes used were obtained from BALB/c mice previously infected intraperitoneally with 10,000 Y trypomastigotes, and then bled after 8–12 days when they reached the peak of parasitaemia.
Trypomastigotes (4x10^5 cells/well) were seeded into 96-well plates and the indirubins were added at eight concentrations ranging from 0.08 to 10 µM, in triplicate. Plates were incubated for 24 h at 37 °C and 5% of CO2. Aliquots of each well were collected and the number of viable parasites, based on parasite integrity and motility, was assessed in a Neubauer chamber and compared to untreated cultures. Three independent experiments were performed.
as §1

[6] = tested on: murine macrophages J774.1; test: Cytotoxicity to mammalian cells (Alamar Blue); format: cell-based, mouse
Description: (§2) Mouse macrophages (J774.1 cell line) were seeded into 96-well plates at a cell number 1 × 10^4 cells/well in DMEM medium supplemented with 10 % of FBS and incubated for 24 h at 37°C and 5% CO2. Samples were then added at eight concentrations (ranging from 0.078 to 10 µM) in triplicate, and incubated for 72 h, followed by the addition of 20 µL/well of Alamar Blue (Invitrogen; Catalog number: DAL1025). Colorimetric readings were performed 24 h later at 570 and 600 nm. CC50 values were calculated using data-points gathered from three independent experiments. Benznidazole was tested in concentrations ranging from 0.78 to 100 µM.
as §1

[7] = Cytotoxicity to mammalian cells (Alamar Blue); format: cell-based, mouse; details: mouse, J774.1 macrophage cells; J774.1 cell viability, 72 h post-treatment
Description: as §2, §1

[8] = 20 mg/Kg orally, daily for 5 days
[9] = trypomastigotes, 24 h post-treatment, mean ± SD of three experiments, read-out: EC50 Try.
[10] = 100 mg/Kg orally, daily for 5 days
[11] = Table S1, 69 indirubin analogues, read-out: EC50 in T.cruzi trypomastigotes

In the case of 3ʹpiperazine-6-BIO [Compound 11], the “signs of toxicity or mortality (in words)” value [1] is reported as “no signs of toxicity”, the EC50 [2] is reported as 0.22 µM and the “Blood Serum Alanine Aminotransferase (ALT)” value [3] is reported as 29±2 U/I. For the same molecule, the “Blood Serum Aspartate Aminotransferase (AST)” value [3] was 135.5±10.5 U/I, the “Blood Serum C-Reactive Protein (CRP)” value [3] was less than 0.02 mg/dL and the “Blood Serum Creatinine” value [3] was 0.385 ± 0.015 mg/dL. For the same molecule, the “Urine (24h) Creatinine” value [3] was 63±8, the “Urine (24h) Microalbumin (Urine Albumin)” value [3] was 9 ± 1 mg/L and the “Urine (24h) Urine albumin to creatinine ratio (ACR)” value [3] was 0.142. The “effect on mortality (in words)” value [4, 8] was “protective effect”, the Mortality [4, 8] was 1/6 and the “morphological alterations by scanning electron microscopy” value (from here on “morphological alterations”) (T. cruzi trypomastigotes) was “extensive loss of plasma membrane integrity”. The “morphological alterations” value (T. cruzi trypomastigotes; listed as compound 11) was “alterations in cell shape and loss of plasma membrane integrity”, the “ultrastructural alterations by transmission electron microscopy” value (from here on “ultrastructural alterations”) (T. cruzi trypomastigotes) was “appearance of myelin figures” and the “ultrastructural alterations” value (T. cruzi trypomastigotes; listed as compound 11) was “DNA degradation with pyknotic nuclei”. It also gave an EC50 [5, 9] of 0.25 µM.
In the case of 3ʹpyrrolidine-6BIO [Compound 17], the “cytotoxicity against murine macrophages J774.1 (in words)” value [6] is reported as “lower cytotoxicity”, the CC50 ([6]; J774.1 cell viability, 72 h post-treatment) is reported as 10 µM and the EC50 [2] is reported as 0.9 µM. For the same molecule, the “effect on mortality (in words)” value [4, 8] was “protective effect”, the Mortality [4, 8] was 1/6* and the “morphological alterations” value (T. cruzi trypomastigotes) was “extensive loss of plasma membrane integrity”. The “ultrastructural alterations” value (T. cruzi trypomastigotes) was “appearance of myelin figures”, the “ultrastructural alterations” value (T. cruzi trypomastigotes; listed as compound 17) was “DNA degradation with pyknotic nuclei” and the EC50 [5, 9] was 0.44 µM.
`O=C(Cn1ccnc1[N+](=O)[O-])NCc1ccccc1` [Benznidazole, reference compound] gave a CC50 at 72 h [7] greater than 100 µM, an EC50 ([2]; Trypanosoma cruzi, Macrophage) of 13.4 µM and a survival rate [4, 10] of 100%. For the same molecule, the “% Blood parasitemia reduction in mice at 12 dpi” value ([4]; 100 mg/Kg orally) was > 99* %, the “% Blood parasitemia reduction in mice at 12 dpi” value ([4]; 100 mg/Kg orally, listed as benznidazole) was greater than 99% and the Mortality [4, 10] was 0/6*. The EC50 ([5]; Trypanosoma cruzi, 24 h, trypomastigotes, 24 h post-treatment, mean ± SD of three experiments, read-out: EC50 Try.) was 11.3 µM.
In the case of `Cc1cc2c(cc1Br)NC(=O)C2=C1Nc2ccccc2C1=NO` [Compound 5-Me-6-BIO, 6-br-5methylindirubin-3ʹoxime], the EC50 [5, 11] is reported as greater than 10 µM and the “activity at the screening threshold (in words)” value ([5]; trypomastigotes) is reported as “did not exhibit any activity”.
With `O=C1Nc2cc(Br)ccc2C1=C1Nc2ccccc2C1=NO` [Compound 6BIO, 3'oxime-6-bromoindirubin] the EC50 [5, 11] was greater than 10 µM and the “activity at the screening threshold (in words)” value ([5]; trypomastigotes) was “did not exhibit any activity”.
In the case of `O=C1Nc2c(Br)cccc2C1=C1Nc2ccccc2C1=O` [Compound 20], the EC50 [5, 11] is reported as greater than 10 µM.
`O=C1Nc2c(Br)cccc2C1=C1Nc2ccccc2C1=NO` [Compound 21] showed an EC50 [5, 11] greater than 10 µM.
Molecule `O=C1Nc2c(cccc2C(F)(F)F)C1=C1Nc2ccccc2C1=NO` [Compound 27] has an EC50 [5, 11] greater than 10 µM.
In the case of `O=C1Nc2c(cccc2C(F)(F)F)C1=C1Nc2ccccc2C1=O` [Compound 36], the EC50 [5, 11] is reported as greater than 10 µM.
`O=C1Nc2cc(N3CCNCC3)c([N+](=O)[O-])cc2C1=C1Nc2ccccc2C1=NO` [Compound 45] gave an EC50 [5, 11] greater than 10 µM.
For `CC(=O)O/N=C1/C(=C2/C(=O)Nc3cc(Br)ccc32)Nc2ccccc21` [Compound 50], the EC50 [5, 11] was greater than 10 µM.
For `O=C1Nc2cc(Br)c([N+](=O)[O-])cc2C1=C1Nc2ccccc2C1=NO` [Compound 51], the EC50 [5, 11] was greater than 10 µM.
With `Nc1cc2c(cc1Br)NC(=O)C2=C1Nc2ccccc2C1=NO` [Compound 52] the EC50 [5, 11] was greater than 10 µM.
In the case of `Nc1cc2c(cc1Br)NC(=O)C2=C1Nc2ccccc2C1=O` [Compound 53], the EC50 [5, 11] is reported as greater than 10 µM.
Work on `O=C1Nc2cc(Br)c([N+](=O)[O-])cc2C1=C1Nc2ccccc2C1=O` [Compound 54] yielded an EC50 [5, 11] greater than 10 µM.
With `O=C1Nc2cc(Br)ccc2C1=C1Nc2ccccc2C1=O` [Compound 55] the EC50 [5, 11] was greater than 10 µM.
Molecule `CCOP(=O)(OCC)ON=C1C(=C2C(=O)Nc3cc(Br)ccc32)Nc2ccccc21` [Compound 56] has an EC50 [5, 11] greater than 10 µM.
`Cc1cc2c(cc1Br)NC(=O)C2=C1Nc2ccccc2C1=O` [Compound 57] showed an EC50 [5, 11] greater than 10 µM.
Molecule `CN1C(=O)C(=C2Nc3ccccc3C2=NO)c2ccc(Br)cc21` [Compound 58] has an EC50 [5, 11] greater than 10 µM.
`CC(=O)ON=C1C(=C2C(=O)N(C)c3cc(Br)ccc32)Nc2ccccc21` [Compound 59] gave an EC50 [5, 11] greater than 10 µM.
With `O=C1Nc2ccc(Br)cc2C1=C1Nc2ccccc2C1=O` [Compound 60] the EC50 [5, 11] was greater than 10 µM.
`O=C1Nc2ccc(Br)cc2C1=C1Nc2ccccc2C1=NO` [Compound 61] gave an EC50 [5, 11] greater than 10 µM.
For `Nc1ccc2c(c1)C(=C1Nc3ccccc3C1=NO)C(=O)N2` [Compound 62], the EC50 [5, 11] was greater than 10 µM.
`O=C1Nc2cc(F)ccc2C1=C1Nc2ccccc2C1=NO` [Compound 63] gave an EC50 [5, 11] greater than 10 µM.
`O=C1Nc2cc(Cl)ccc2C1=C1Nc2ccccc2C1=NO` [Compound 64] showed an EC50 [5, 11] greater than 10 µM.
`O=C1Nc2cc(I)ccc2C1=C1Nc2ccccc2C1=NO` [Compound 65] gave an EC50 [5, 11] greater than 10 µM.
Molecule `O=C1Nc2ccccc2/C1=C1/Nc2ccccc2C1=O` [Compound 66] has an EC50 [5, 11] greater than 10 µM.
`CON=C1C(=C2C(=O)Nc3ccccc32)Nc2ccccc21` [Compound 67] showed an EC50 [5, 11] greater than 10 µM.
